We go through 46 compounds from BindingDB's records for patent US20250313563 (The Broad Institute, 2025).

Several values for one entry are separate records, joined by “and”; a condition that tells them apart may be missing. Equal values may be shown once. A value given as a limit tells only on which side of the number the result lay.

Test [1] concerns the target Glycogen synthase kinase-3 alpha (Homo sapiens, UniProt P49840). Briefly: TR-FRET Assay. In outline: (§1)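 TR-FRET readout: streptavidin-d2 (40 nM in added detection mix) plus Tb-anti-pSer641 Ab (2 nM in mix). Steps were 30 min compound preincubation, kinase reaction, then EDTA stop.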
A general note: TR-FRET usually uses a lanthanide donor and a delayed reading to cut background.

Test [2] addresses Glycogen synthase kinase-3 beta (Homo sapiens, UniProt P49841). As to the kind of experiment: TR-FRET Assay. In short, it runs like this:
as §1

Glycogen synthase kinase-3 alpha, sequence (P49840 whole entry): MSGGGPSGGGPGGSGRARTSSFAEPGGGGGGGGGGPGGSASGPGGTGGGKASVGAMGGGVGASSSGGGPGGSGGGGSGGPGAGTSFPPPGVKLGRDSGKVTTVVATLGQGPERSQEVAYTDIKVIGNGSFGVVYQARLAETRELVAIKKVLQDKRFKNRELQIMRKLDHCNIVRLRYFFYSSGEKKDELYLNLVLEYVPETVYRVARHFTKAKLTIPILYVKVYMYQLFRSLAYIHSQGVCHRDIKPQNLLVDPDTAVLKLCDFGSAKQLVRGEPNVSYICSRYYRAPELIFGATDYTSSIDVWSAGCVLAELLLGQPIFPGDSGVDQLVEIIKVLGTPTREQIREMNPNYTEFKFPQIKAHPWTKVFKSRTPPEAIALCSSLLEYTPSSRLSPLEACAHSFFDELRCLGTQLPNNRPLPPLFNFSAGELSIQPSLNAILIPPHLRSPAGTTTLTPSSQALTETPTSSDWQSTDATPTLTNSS
Glycogen synthase kinase-3 beta, sequence (P49841 whole entry): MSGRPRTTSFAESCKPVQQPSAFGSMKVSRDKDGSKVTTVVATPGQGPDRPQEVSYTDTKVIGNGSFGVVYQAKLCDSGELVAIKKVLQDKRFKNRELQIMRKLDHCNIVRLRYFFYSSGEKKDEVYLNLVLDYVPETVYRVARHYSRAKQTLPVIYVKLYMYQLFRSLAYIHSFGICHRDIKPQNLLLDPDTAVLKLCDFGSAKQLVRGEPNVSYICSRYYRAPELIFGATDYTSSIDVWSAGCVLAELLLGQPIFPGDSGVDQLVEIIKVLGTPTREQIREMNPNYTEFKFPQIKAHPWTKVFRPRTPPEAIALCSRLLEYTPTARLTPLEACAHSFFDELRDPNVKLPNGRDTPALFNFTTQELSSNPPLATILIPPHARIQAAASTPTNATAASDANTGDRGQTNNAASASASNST

Regarding `CCCc1cc(-c2cccc(C3(CC)C4=CN=NC4NC4=C3C(=O)CC(C)(C)C4)c2)ccn1` (configuration not stated) [US20250313563, Compound 945467], the results for the IC50 in test [1] and in test [2] were under 100 nM and 100 to 1000 nM, respectively.
The corresponding values for `CCC1(c2cccc(-c3cc(C)ncc3OC)c2)C2=CN=NC2NC2=C1C(=O)CC(C)(C)C2` (configuration not stated) [US20250313563, Compound 945468] are under 100 nM and 100 to 1000 nM.
In the case of `CC[C@]1(c2cccc(-c3ccncc3CO)c2)C2=CN=NC2NC2=C1C(=O)CC(C)(C)C2` (some centres not stated) [US20250313563, Compound 945469], the IC50 in test [1] and in test [2] was under 100 nM throughout.
Turning to `CC[C@@]1(c2cccc(-c3cn(C)nc3C)c2)C2=CN=NC2NC2=C1C(=O)NC(C)(C)C2` (some centres not stated) [US20250313563, Compound 945470], the IC50 (in general, the concentration at which inhibition is half-maximal) in test [1] was < 100 nM and 100 to 1000 nM; in test [2] it was < 100 nM and 1000 to 5000 nM.
Turning to `CC[C@@]1(c2cccc(-c3ccncc3OC)c2)C2=CN=NC2NC2=C1C(=O)CC(C)(C)C2` (some centres not stated) [US20250313563, Compound 945471], the IC50 in test [1] is 1000 to 5000 nM and > 5000 nM; in test [2], 1000 to 5000 nM and > 5000 nM.
For `CC[C@]1(c2cccc(-c3ncnn3C)c2)C2=CN=NC2NC2=C1C(=O)CC(C)(C)C2` (some centres not stated) [US20250313563, Compound 945472], the IC50 in test [1] was under 100 nM; in test [2], 100 to 1000 nM.
The corresponding values for `CC1(C)CC(=O)C2=C(C1)NC1N=NC=C1[C@@]21CCCN(S(=O)(=O)Cc2ccccc2)CC1` (some centres not stated) [US20250313563, Compound 945473] are under 100 nM and 100 to 1000 nM.
The corresponding values for `CC[C@@]1(c2cccc(N(C)c3ccc(C(F)(F)F)nc3)c2)C2=CN=NC2NC2=C1C(=O)CC(C)(C)C2` (some centres not stated) [US20250313563, Compound 945474] are under 100 nM and 100 to 1000 nM.
For `CC[C@@]1(c2cccc(-c3ccnc(C)c3)c2)C2=CN=NC2NC2=C1C(=O)[C@@H](F)C(C)(C)C2` (some centres not stated) [US20250313563, Compound 945475], the IC50 was < 100 nM and 1000 to 5000 nM in test [1]; 100 to 1000 nM and > 5000 nM in test [2].
For `CC[C@@]1(c2cccc(-c3ccnc(C)c3)c2)C2=CN=NC2NC2=C1C(=O)[C@H](F)C(C)(C)C2` (some centres not stated) [US20250313563, Compound 945476], the IC50 in test [1] is < 100 nM and 100 to 1000 nM; in test [2] it was 100 to 1000 nM and > 5000 nM.
For the compound `CC1(C)CC(=O)C2=C(C1)NC1=C(CN=N1)C21CN(c2ccccn2)C1` [US20250313563, Compound 945477], the IC50 in test [1] and in test [2] was 1000 to 5000 nM throughout.
Take `CC1(C)CC(=O)C2=C(C1)NC1N=NC=C1C21CN(c2ccc(C(F)(F)F)cc2)C1` (configuration not stated) [US20250313563, Compound 945478]: the IC50 in test [1] and in test [2] was 100 to 1000 nM each time.
As to `CC[C@@]1(c2cccc(-c3ccncc3CO)c2)C2=CN=NC2NC2=C1C(=O)CC(C)(C)C2` (some centres not stated) [US20250313563, Compound 945479], the results for the IC50 in test [1] and in test [2] were 100 to 1000 nM and 1000 to 5000 nM, respectively.
Consider `CC[C@]1(c2cccc(-c3cn(C)nc3C)c2)C2=CN=NC2NC2=C1C(=O)NC(C)(C)C2` (some centres not stated) [US20250313563, Compound 945480], for which the IC50 is 1000 to 5000 nM in test [1] and over 5000 nM in test [2].
In the case of `CC[C@@]1(c2cccc(-c3ncnn3C)c2)C2=CN=NC2NC2=C1C(=O)CC(C)(C)C2` (some centres not stated) [US20250313563, Compound 945482], the IC50 in test [1] was 1000 to 5000 nM and > 5000 nM; in test [2] it was over 5000 nM.
Turning to `CC1(C)CC(=O)C2=C(C1)NC1N=NC=C1[C@]21CCCN(S(=O)(=O)Cc2ccccc2)CC1` (some centres not stated) [US20250313563, Compound 945483], the IC50 in test [1] and in test [2] was 100 to 1000 nM throughout.
With `CC[C@]1(c2cccc(CN(C)c3ccc(C(F)(F)F)nc3)c2)C2=CN=NC2NC2=C1C(=O)CC(C)(C)C2` (some centres not stated) [US20250313563, Compound 945484], the IC50 in test [1] and in test [2] was over 5000 nM throughout.
For the compound `CC[C@]1(c2cccc(-c3ccnc(C)c3)c2)C2=CN=NC2NC2=C1C(=O)[C@H](F)C(C)(C)C2` (some centres not stated) [US20250313563, Compound 945485], the IC50 in test [1] and in test [2] was over 5000 nM in each case.
For the compound `CC[C@]1(c2cccc(-c3ccnc(C)c3)c2)C2=CN=NC2NC2=C1C(=O)[C@@H](F)C(C)(C)C2` (some centres not stated) [US20250313563, Compound 945486], the IC50 is 1000 to 5000 nM in test [1] and over 5000 nM in test [2].
As for `CCC1(c2cccc(-c3ccncc3C)c2)C2=C(CC(C)(C)CC2=O)NC2N=NC(C(F)(F)F)=C21` (configuration not stated) [US20250313563, Compound 945527], the IC50 in test [1] is under 100 nM; in test [2], < 100 nM and 100 to 1000 nM.
In the case of `CCC1(c2cccc(-c3ccncc3F)c2)C2=C(CC(C)(C)CC2=O)NC2N=NC(C(F)(F)F)=C21` (configuration not stated) [US20250313563, Compound 945528], the 50% inhibitory concentration (IC50) is under 100 nM in test [1]; < 100 nM and 100 to 1000 nM in test [2].
As to `CCC1(c2cccc(-c3ccnc(C)c3C)c2)C2=C(CC(C)(C)CC2=O)NC2N=NC(C(F)(F)F)=C21` (configuration not stated) [US20250313563, Compound 945529], the IC50 in test [1] is under 100 nM; in test [2], < 100 nM and 100 to 1000 nM.
As to `CCC1(c2cccc(-c3cc(C)ncc3C)c2)C2=C(CC(C)(C)CC2=O)NC2N=NC(C(F)(F)F)=C21` (configuration not stated) [US20250313563, Compound 945530], the IC50 in test [1] and in test [2] was under 100 nM throughout.
As for `CCC1(c2cccc(-c3ccnn3C)c2)C2=C(CC(C)(C)CC2=O)NC2N=NC(C(F)(F)F)=C21` (configuration not stated) [US20250313563, Compound 945531], the IC50 is under 100 nM in test [1]; < 100 nM and 100 to 1000 nM in test [2].
`CCC1(c2cccc(-c3cc(C)nn3C)c2)C2=C(CC(C)(C)CC2=O)NC2N=NC(C(F)(F)F)=C21` (configuration not stated) [US20250313563, Compound 945532]: the IC50 in test [1] is under 100 nM; in test [2], < 100 nM and 100 to 1000 nM.
Consider `CC[C@]1(c2cccc(-c3cnn4c3CCCC4)c2)C2=CN=NC2NC2=C1C(=O)CC(C)(C)C2` (some centres not stated) [US20250313563, Compound 945543], for which the figures for the concentration for half-maximal inhibition (IC50) in test [1] and in test [2] were 100 to 1000 nM and 1000 to 5000 nM, respectively.
In the case of `CC[C@]1(c2cccc(-c3cn(C)nc3C)c2)C2=CN=NC2NC2=C1C(=O)CC(C)(C)C2` (some centres not stated) [US20250313563, Compound 945545], the IC50 in test [1] is 1000 to 5000 nM; in test [2], over 5000 nM.
Turning to `CC[C@@]1(c2cccc(-c3cn(C)nc3C)c2)C2=CN=NC2NC2=C1C(=O)CC(C)(C)C2` (some centres not stated) [US20250313563, Compound 945546], the IC50 in test [1] is under 100 nM; in test [2] it was < 100 nM and 100 to 1000 nM.
Turning to `CC1(C)CC(=O)C2=C(C1)NC1N=NC=C1[C@@]21CCCc2c(-c3ccncc3)cccc21` (some centres not stated) [US20250313563, Compound 945547], the IC50 was 1000 to 5000 nM in test [1] and over 5000 nM in test [2].
The corresponding values for `CC1(C)CC(=O)C2=C(C1)NC1N=NC=C1[C@]21CCCc2c(-c3ccncc3)cccc21` (some centres not stated) [US20250313563, Compound 945548] are under 100 nM and under 100 nM.
The corresponding values for `Cc1cc(-c2cccc3c2CCC[C@@]32C3=CN=NC3NC3=C2C(=O)CC(C)(C)C3)ccn1` (some centres not stated) [US20250313563, Compound 945549] are under 100 nM and under 100 nM.
In the case of `Cc1cc(-c2cccc3c2CCC[C@]32C3=CN=NC3NC3=C2C(=O)CC(C)(C)C3)ccn1` (some centres not stated) [US20250313563, Compound 945550], the IC50 in test [1] was 100 to 1000 nM; in test [2] it was over 5000 nM.
The like results for `Cn1nccc1-c1cccc2c1CCC[C@@]21C2=CN=NC2NC2=C1C(=O)CC(C)(C)C2` (some centres not stated) [US20250313563, Compound 945551] were, in that order, under 100 nM and under 100 nM.
The like results for `Cn1nccc1-c1cccc2c1CCC[C@]21C2=CN=NC2NC2=C1C(=O)CC(C)(C)C2` (some centres not stated) [US20250313563, Compound 945552] were, in that order, 100 to 1000 nM and over 5000 nM.
The like results for `CCC1(c2cccc(-c3cncn3C)c2)C2=CN=NC2NC2=C1C(=O)NC(C)(C)C2` (configuration not stated) [US20250313563, Compound 945597] were, in that order, under 100 nM and under 100 nM.
In the case of `CCC1(c2cccc(-c3c(C)nn(C)c3C)c2)C2=C(CC(C)(C)NC2=O)NC2N=NC(C)=C21` (configuration not stated) [US20250313563, Compound 945598], the IC50 in test [1] and in test [2] was under 100 nM throughout.
With `CCC1(c2cccc(-c3ccncc3C)c2)C2=C(CC(C)(C)NC2=O)NC2N=NC(C)=C21` (configuration not stated) [US20250313563, Compound 945599], the IC50 in test [1] and in test [2] was under 100 nM each time.
For the compound `CCc1cc(N(C)c2cccc(C3(CC)C4=CN=NC4NC4=C3C(=O)CC(C)(C)C4)c2)ccn1` (configuration not stated) [US20250313563, Compound 945600], the IC50 in test [1] was 100 to 1000 nM; in test [2], 1000 to 5000 nM.
Take `CCC1(c2cccc(CS(C)(=O)=O)c2)C2=CN=NC2NC2=C1C(=O)CC(C)(C)C2` (configuration not stated) [US20250313563, Compound 945601]: the IC50 in test [1] and in test [2] was 100 to 1000 nM in each case.
`CCC1(c2cccc(N3CCOCC3)c2)C2=CN=NC2NC2=C1C(=O)NC(C)(C)C2` (configuration not stated) [US20250313563, Compound 945602]: the figures for the IC50 in test [1] and in test [2] were 1000 to 5000 nM and over 5000 nM, respectively.
The corresponding values for `CCC1(c2cccc(-c3cnn4c3CCCC4)c2)C2=CN=NC2NC2=C1C(=O)NC(C)(C)C2` (configuration not stated) [US20250313563, Compound 945603] are under 100 nM and 100 to 1000 nM.
The corresponding values for `CC[C@@]1(c2cccc(S(C)(=O)=O)c2)C2=CN=NC2NC2=C1C(=O)NC(C)(C)C2` (some centres not stated) [US20250313563, Compound 945604] are under 100 nM and under 100 nM.
For the compound `CC[C@@]1(c2cccc(-c3cncn3C)c2)C2=CN=NC2NC2=C1C(=O)CC(C)(C)C2` (some centres not stated) [US20250313563, Compound 945605], the IC50 in test [1] and in test [2] was under 100 nM throughout.
On to `CC[C@@]1(c2cccc(-c3ccnc4c3CCC4)c2)C2=CN=NC2NC2=C1C(=O)CC(C)(C)C2` (some centres not stated) [US20250313563, Compound 945606], for which the IC50 in test [1] was 100 to 1000 nM; in test [2], 100 to 1000 nM and 1000 to 5000 nM.
On to `CC[C@@]1(c2cccc(-c3cnc4n3CCCC4)c2)C2=CN=NC2NC2=C1C(=O)CC(C)(C)C2` (some centres not stated) [US20250313563, Compound 945607], for which the 50% inhibitory concentration (IC50) in test [1] was < 100 nM and 1000 to 5000 nM; in test [2], 100 to 1000 nM and > 5000 nM.
Regarding `CC[C@@]1(c2cccc(-c3cnn(C)c3C)c2)C2=CN=NC2NC2=C1C(=O)NC(C)(C)C2` (some centres not stated) [US20250313563, Compound 945608], the IC50 in test [1] is under 100 nM; in test [2] it was 100 to 1000 nM.
